Results reported in patent US5501850A, “Use of benzimidazole derivatives as light protection filters” (Merck Patent Gesellschaft mit beschrankter Haftung, priority 1992, dated 1996).
In brackets after ≈: the same amount, converted by molar mass. Where two headings read alike, the source gives them in different places.

What was measured:
[1] = 280-320 nm; cited from earlier work
[2] = UV spectra measured in a UV spectrometer (Perkin-Elmer), path length one centimeter; assay type: physicochemical; details: ethanol, c=1 mg/100 ml
Description: The UV spectra were measured in a UV spectrometer from Perkin-Elmer at a path length of one centimeter.

[3] = Solubility; assay type: physicochemical; details: organic solvent or mixture
[4] = cited from earlier work

Row | E at λmax1 [2] | E at λmax2 [2] | λmax1 [2] [nm] | λmax2 [2] [nm] | SMILES | other results
1 |  |  |  |  | Cc1ccc(C=C2C(=O)C3(C)CCC2C3(C)C)cc1 (stereo not shown) [EUSOLEX® 6300] | filter quality in the UVB range [1]: good filters
2 | 0.34 | 0.30 | 303 | 328 | CCCCC(CC)COc1ccc(OCC(CC)CCCC)c(-c2nc3ccccc3[nH]2)c1 (stereo not shown) [Example 1, 2-2',5'-Di(2-ethylhexyloxy)phenyl!benzimidazole] | 
3 | 0.51 | 0.45 | 297 | 308 | CCCCC(CC)COc1c(OC)ccc(-c2nc3ccccc3[nH]2)c1OC (stereo not shown) [Example 2] | solubility ([3]; isopropanol, read-out: Solubility in Isopropanol): 640 mg/mL (≈ 1670 mM); solubility ([3]; miglyol, read-out: Solubility in Miglyol): 590 mg/mL (≈ 1540 mM); solubility ([3]; paraffin, read-out: Solubility in Paraffin): 57 mg/mL (≈ 149 mM)
4 | 0.76 | 0.42 | 309 | 323 | COc1ccc(-c2nc3ccccc3[nH]2)c(OC)c1OC [Example 2a, 2-(2',3',4'-Trimethoxy)phenylbenzimidazole] | 
5 |  |  |  |  | CC(C)c1ccc(C(=O)CC(=O)c2ccccc2)cc1 [EUSOLEX® 8020] | stability when exposed to UV irradiation [4]: do not have an unlimited stability
6 |  |  |  |  | O=S(=O)(O)c1ccc2[nH]c(-c3ccccc3)nc2c1 [EUSOLEX® 232] | filter quality in the UVB range [1]: good filters
7 |  |  |  |  | COc1ccc(C(=O)CC(=O)c2ccc(C(C)(C)C)cc2)cc1 [PARSOL® 1789] | stability when exposed to UV irradiation [4]: do not have an unlimited stability
